Test results reported in the NIST ThermoML archive (doi:10.1021/je9002724).
± gives the expanded uncertainty stated by the source.

assay: activity coefficient (dimensionless); of the first substance listed, at infinite dilution; xn = mol fraction of the nth substance listed; details: 333.15 K; Liquid; Chromatography; x1 = 0

SMILES	activity coefficient
Cc1ccc(C)cc1 [1,4-dimethylbenzene] + C[n+]1ccn(CCO)c1.F[B-](F)(F)F	33.2 ± 3.5
CCCCCCCCC [nonane] + C[n+]1ccn(CCO)c1.F[B-](F)(F)F	599 ± 63
Cc1ccccc1 [toluene] + C[n+]1ccn(CCO)c1.F[B-](F)(F)F	17.5 ± 1.8
C1CCCCC1 [cyclohexane] + C[n+]1ccn(CCO)c1.F[B-](F)(F)F	593 ± 63
c1ccccc1 [benzene] + C[n+]1ccn(CCO)c1.F[B-](F)(F)F	9.08 ± 0.95
Cc1cccc(C)c1 [1,3-dimethylbenzene] + C[n+]1ccn(CCO)c1.F[B-](F)(F)F	34.7 ± 3.7
CCc1ccccc1 [ethylbenzene] + C[n+]1ccn(CCO)c1.F[B-](F)(F)F	37.9 ± 4

same assay, conditions: 343.15 K; Liquid; Chromatography; x1 = 0

SMILES	activity coefficient
CC(C)CC(C)(C)C [2,2,4-trimethylpentane] + C[n+]1ccn(CCO)c1.F[B-](F)(F)F	1300 ± 140
C1=CCCCC1 [cyclohexene] + C[n+]1ccn(CCO)c1.F[B-](F)(F)F	106 ± 11
CCCCCCCC [octane] + C[n+]1ccn(CCO)c1.F[B-](F)(F)F	659 ± 70
Cc1ccccc1C [1,2-dimethylbenzene] + C[n+]1ccn(CCO)c1.F[B-](F)(F)F	26.5 ± 2.8
C=Cc1ccccc1 [styrene] + C[n+]1ccn(CCO)c1.F[B-](F)(F)F	14.4 ± 1.5
CCCCCCC [heptane] + C[n+]1ccn(CCO)c1.F[B-](F)(F)F	2190 ± 230
CC1CCCCC1 [methylcyclohexane] + C[n+]1ccn(CCO)c1.F[B-](F)(F)F	546 ± 58
Cc1ccc(C)cc1 [1,4-dimethylbenzene] + C[n+]1ccn(CCO)c1.F[B-](F)(F)F	32.5 ± 3.4
CCCCCCCCC [nonane] + C[n+]1ccn(CCO)c1.F[B-](F)(F)F	616 ± 65
Cc1ccccc1 [toluene] + C[n+]1ccn(CCO)c1.F[B-](F)(F)F	17.3 ± 1.8
C1CCCCC1 [cyclohexane] + C[n+]1ccn(CCO)c1.F[B-](F)(F)F	689 ± 73
c1ccccc1 [benzene] + C[n+]1ccn(CCO)c1.F[B-](F)(F)F	9.06 ± 0.95
Cc1cccc(C)c1 [1,3-dimethylbenzene] + C[n+]1ccn(CCO)c1.F[B-](F)(F)F	34 ± 3.6
CCc1ccccc1 [ethylbenzene] + C[n+]1ccn(CCO)c1.F[B-](F)(F)F	36.7 ± 3.9

same assay, conditions: 353.15 K; Liquid; Chromatography; x1 = 0

SMILES	activity coefficient
CC(C)CC(C)(C)C [2,2,4-trimethylpentane] + C[n+]1ccn(CCO)c1.F[B-](F)(F)F	1700 ± 180
C1=CCCCC1 [cyclohexene] + C[n+]1ccn(CCO)c1.F[B-](F)(F)F	103 ± 11
CCCCCCCC [octane] + C[n+]1ccn(CCO)c1.F[B-](F)(F)F	709 ± 75
Cc1ccccc1C [1,2-dimethylbenzene] + C[n+]1ccn(CCO)c1.F[B-](F)(F)F	25.9 ± 2.7
C=Cc1ccccc1 [styrene] + C[n+]1ccn(CCO)c1.F[B-](F)(F)F	14.2 ± 1.5
CCCCCCC [heptane] + C[n+]1ccn(CCO)c1.F[B-](F)(F)F	2980 ± 310
CC1CCCCC1 [methylcyclohexane] + C[n+]1ccn(CCO)c1.F[B-](F)(F)F	611 ± 64
Cc1ccc(C)cc1 [1,4-dimethylbenzene] + C[n+]1ccn(CCO)c1.F[B-](F)(F)F	32 ± 3.4
CCCCCCCCC [nonane] + C[n+]1ccn(CCO)c1.F[B-](F)(F)F	633 ± 67
Cc1ccccc1 [toluene] + C[n+]1ccn(CCO)c1.F[B-](F)(F)F	17.2 ± 1.8
C1CCCCC1 [cyclohexane] + C[n+]1ccn(CCO)c1.F[B-](F)(F)F	803 ± 85
c1ccccc1 [benzene] + C[n+]1ccn(CCO)c1.F[B-](F)(F)F	9.05 ± 0.95
Cc1cccc(C)c1 [1,3-dimethylbenzene] + C[n+]1ccn(CCO)c1.F[B-](F)(F)F	33.2 ± 3.5
CCc1ccccc1 [ethylbenzene] + C[n+]1ccn(CCO)c1.F[B-](F)(F)F	35.9 ± 3.8

same assay, conditions: 363.15 K; Liquid; Chromatography; x1 = 0

SMILES	activity coefficient
CC(C)CC(C)(C)C [2,2,4-trimethylpentane] + C[n+]1ccn(CCO)c1.F[B-](F)(F)F	2310 ± 240
C1=CCCCC1 [cyclohexene] + C[n+]1ccn(CCO)c1.F[B-](F)(F)F	100 ± 11
CCCCCCCC [octane] + C[n+]1ccn(CCO)c1.F[B-](F)(F)F	760 ± 80
Cc1ccccc1C [1,2-dimethylbenzene] + C[n+]1ccn(CCO)c1.F[B-](F)(F)F	25.4 ± 2.7
C=Cc1ccccc1 [styrene] + C[n+]1ccn(CCO)c1.F[B-](F)(F)F	14 ± 1.5
CCCCCCC [heptane] + C[n+]1ccn(CCO)c1.F[B-](F)(F)F	4220 ± 450
CC1CCCCC1 [methylcyclohexane] + C[n+]1ccn(CCO)c1.F[B-](F)(F)F	677 ± 71
Cc1ccc(C)cc1 [1,4-dimethylbenzene] + C[n+]1ccn(CCO)c1.F[B-](F)(F)F	31.4 ± 3.3
CCCCCCCCC [nonane] + C[n+]1ccn(CCO)c1.F[B-](F)(F)F	651 ± 69
Cc1ccccc1 [toluene] + C[n+]1ccn(CCO)c1.F[B-](F)(F)F	16.9 ± 1.8
C1CCCCC1 [cyclohexane] + C[n+]1ccn(CCO)c1.F[B-](F)(F)F	934 ± 99
c1ccccc1 [benzene] + C[n+]1ccn(CCO)c1.F[B-](F)(F)F	9.04 ± 0.95
Cc1cccc(C)c1 [1,3-dimethylbenzene] + C[n+]1ccn(CCO)c1.F[B-](F)(F)F	32.5 ± 3.4
CCc1ccccc1 [ethylbenzene] + C[n+]1ccn(CCO)c1.F[B-](F)(F)F	35 ± 3.7
